Values of other authors in patent US20170135934A1, “Mouth Rinse for Prevention of Periodontal Disease” (priority 2015, published 2017).
Read-outs that look alike come from different tables or passages of the source. Residues, ends and D or L forms follow the SMILES beside them.

What was measured:
[1] = tested on: intracellular glutamine pool; conditions: intravenous supply following cholecystectomy
[2] = patients, TPN over 5 days
[3] = healthy volunteers; for urinary losses of dipeptides: continuous infusion; for side effects: continuous infusion of supplemented amino acid solution
[4] = tested on: biopsies from normal human ileum, proximal colon and rectosigmoid colon; conditions: compared with saline
[5] = tested on: intestinal epithelial cell; conditions: heat shock at 43 degrees C.; concentrations higher than 1 mM
[6] = tested on: rat lymphocytes; conditions: glutamine added to the medium

peptide in plasma [2]	urinary losses of dipeptides [3]	SMILES	intracellular glutamine pool preserved [1]	side effects [2]	side effects [3]	crypt cell proliferation [4]	percentage of floating cells [5]	proliferation of rat lymphocytes (radioactive thymidine) [6]
not detectable	about 1 % of the given dose	C[C@H](N)C(=O)N[C@@H](CCC(N)=O)C(=O)O [AlaGln, L-Alanyl-L-gutamine] (H-Ala-Gln-OH)	91 % of postoperative value	free of any side effects	not accompanied by any side effects	equally stimulated crypt cell proliferation	–	–
–	about 1 % of the given dose	NCC(=O)N[C@@H](CCC(N)=O)C(=O)O [GlyGln, glycyl-L glutamine, reference compound] (H-Gly-Gln-OH)	–	–	not accompanied by any side effects	–	–	–
–	–	NC(=O)CC[C@H](N)C(=O)O [glutamine]	–	–	–	equally stimulated crypt cell proliferation	dose dependent decrease	four-fold
